As a reminder, the Ki is a dissociation constant, usually derived from enzyme kinetics or from competition with a known ligand. Read a low Ki as a stronger hold on the target.

Sequence of Metallo-beta-lactamase type 2 (C7C422 whole entry): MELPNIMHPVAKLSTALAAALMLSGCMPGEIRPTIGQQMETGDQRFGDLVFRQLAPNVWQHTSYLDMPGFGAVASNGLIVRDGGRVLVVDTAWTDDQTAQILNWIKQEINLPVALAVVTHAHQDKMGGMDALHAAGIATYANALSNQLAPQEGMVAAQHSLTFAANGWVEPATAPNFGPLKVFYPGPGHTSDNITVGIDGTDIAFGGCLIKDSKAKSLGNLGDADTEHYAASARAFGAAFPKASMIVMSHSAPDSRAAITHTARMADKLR

The test addresses Metallo-beta-lactamase type 2 (Klebsiella pneumoniae, UniProt C7C422). The test can be described thus: Competitive inhibition of NDM-1 (unknown origin) using penicillin G as substrate by Michaelis-Menten equation based kinetic analysis.
As for `N#Cc1c(-c2ccccc2)c(-c2ccccc2)n(Cc2ccccc2)c1NC(=O)c1ccccc1`, the affinity corresponds to a Ki of 9 µM. As for `N#Cc1c(-c2ccccc2)c(-c2ccccc2)n(Cc2ccccc2)c1/N=C/c1ccccc1`, the figure is 3.2 µM; as for `N#Cc1c(-c2ccccc2)c(-c2ccccc2)n(Cc2ccccc2)c1/N=C/c1cccs1`, 1.7 µM; as for `N#Cc1c(-c2ccccc2)c(-c2ccccc2)n(Cc2ccccc2)c1/N=C/c1ccc(O)cc1`, 1.3 µM. As for `COC(=O)c1ccc(/C=N/c2c(C#N)c(-c3ccccc3)c(-c3ccccc3)n2Cc2ccccc2)cc1`, the figure is 34 µM.

Source of the values: BindingDB's records for doi:10.1016/j.bmcl.2023.129387 (The University of Queensland, 2023).
